Converted amounts (≈) assume the structure as drawn.
Experiments:
Pyricularia orzae = test: whole plant or invertebrate; type: in vivo, Pyricularia orzae (rice plant, Chukyo Asahi); conditions: in Oryza sativa, 120 h, read-out: Protective value
Rhizoctonia solani = test: whole plant or invertebrate; type: in vivo, Rhizoctonia solani (rice plant, Chukyo Asahi); conditions: in Oryza sativa, 120 h, read-out: Preventive value
Sphaerotheca fuliginea = test: whole plant or invertebrate; type: in vivo, Sphaerotheca fuliginea (cucumber plant, Suyo); conditions: Podosphaera fuliginea, in Cucumis sativus, 240 h; read-out: Protective value
[1] = tested on: Aspergillum flavus IFO 6343; test: Test 8: MIC by agar dilution process; type: cell-based; conditions: 168 h; Sabouraud's agar medium; 1 week
Experimental: (§1) Each minimum growth inhibition concentration (MIC) of Compound No. 16 to various microorganisms was measured by the agar dilution process. In the cases of bacteria, the results were observed 24 hours after the inoculation and in the cases of fungi, the results were observed 1 week after the inoculation.

[2] = tested on: Aspergillum fumigatus IFO 4057; test: Test 8: MIC by agar dilution process; type: cell-based; conditions: 168 h; Sabouraud's agar medium; 1 week
Experimental: as §1

[3] = tested on: Aspergillum niger IFO 6341; test: Test 8: MIC by agar dilution process; type: cell-based; conditions: 168 h; Sabouraud's agar medium; 1 week
Experimental: as §1

[4] = tested on: Aureobasidium pullulans IFO 6353; test: Test 8: MIC by agar dilution process; type: cell-based; conditions: IFO6353, 168 h, Sabouraud's agar medium, 1 week
Experimental: as §1

Bacillus subtilis PC1219 = test: Test 8: MIC by agar dilution process; type: cell-based; conditions: Bouillon agar medium, 24 hours
Experimental: as §1

[5] = tested on: Chaetomium globosum IFO 6347; test: Test 8: MIC by agar dilution process; type: cell-based; conditions: IFO6347, 168 h, Sabouraud's agar medium, 1 week
Experimental: as §1

Escherichia coli = test: Test 8: MIC by agar dilution process; type: cell-based; conditions: Bouillon agar medium, 24 hours
Experimental: as §1

[6] = tested on: Gibberella fujikuroi IFO 6349; test: Test 8: MIC by agar dilution process; type: cell-based; conditions: Fusarium fujikuroi, IFO6349, 168 h; Sabouraud's agar medium; 1 week
Experimental: as §1

[7] = tested on: Gliocladium virens IFO 9166; test: Test 8: MIC by agar dilution process; type: cell-based; conditions: Trichoderma virens, IFO9166, 168 h; Sabouraud's agar medium; 1 week
Experimental: as §1

[8] = tested on: Klebsiella pneumoniae IFO 3512; test: Test 8: MIC by agar dilution process; type: cell-based; conditions: IFO3512, Bouillon agar medium, 24 hours
Experimental: as §1

[9] = tested on: Myrothecium verrucaria IFO 6133; test: Test 8: MIC by agar dilution process; type: cell-based; conditions: Albifimbria verrucaria, IFO6133, 168 h; Sabouraud's agar medium; 1 week
Experimental: as §1

[10] = tested on: Penicillium chrysogeum IFO 4626; test: Test 8: MIC by agar dilution process; type: cell-based; conditions: IFO4626, 168 h, Sabouraud's agar medium, 1 week
Experimental: as §1

[11] = tested on: Penicillium citrium IFO 6352; test: Test 8: MIC by agar dilution process; type: cell-based; conditions: IFO6352, 168 h, Sabouraud's agar medium, 1 week
Experimental: as §1

[12] = tested on: Penicillium funiculosum IFO 6354; test: Test 8: MIC by agar dilution process; type: cell-based; conditions: Talaromyces funiculosus, IFO6354, 168 h; Sabouraud's agar medium; 1 week
Experimental: as §1

Penicillium italicum = test: Test 8: MIC by agar dilution process; type: cell-based; conditions: 168 h, Sabouraud's agar medium, 1 week
Experimental: as §1

[13] = tested on: Proteus morganii IFO 3848; test: Test 8: MIC by agar dilution process; type: cell-based; conditions: Morganella morganii, IFO3848; Bouillon agar medium; 24 hours
Experimental: as §1

Pseudomonas aeruginosa = test: Test 8: MIC by agar dilution process; type: cell-based; conditions: Bouillon agar medium, 24 hours
Experimental: as §1

[14] = tested on: Salmonella typhimurium IFO 12529; test: Test 8: MIC by agar dilution process; type: cell-based; conditions: Salmonella enterica; Bouillon agar medium; 24 hours
Experimental: as §1

[15] = tested on: Serratia marcescens IFO 12648; test: Test 8: MIC by agar dilution process; type: cell-based; conditions: IFO12648, Bouillon agar medium, 24 hours
Experimental: as §1

[16] = tested on: Staphylococcus aureus 209P; test: Test 8: MIC by agar dilution process; type: cell-based; conditions: Bouillon agar medium, 24 hours
Experimental: as §1

Trametes sanguinea = test: Test 8: MIC by agar dilution process; type: cell-based; conditions: 168 h, Sabouraud's agar medium, 1 week
Experimental: as §1

Botrytis cinerea = test: Test 9: protective value on cucumber inoculated with Botrytis cinerea; type: in vivo, Botrytis cinerea (cucumber plant, Suyo); conditions: 72 h, 250 ppm, 10 ml sprayed, lesion length three days after inoculation
In short: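 Cucumber at one-leaf stage sprayed with active ingredient at 250 ppm, kept in a greenhouse at 24–25 °C for one day, then inoculated with a PDA-grown Botrytis cinerea agar disc. Lesion length measured 3 days after inoculation and converted to protective value; some comparisons used lower concentrations.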

Q: For `O=[N+]([O-])c1cc(C(F)(F)F)c(Cl)c([N+](=O)[O-])c1Nc1c(Cl)cncc1Cl` [Compound No. 16], which pest or weed control at 100 ppm (Pyricularia orzae) is on record?
A: The pest or weed control at 100 ppm was 100%.

Q: And the pest or weed control at 100 ppm (Rhizoctonia solani)?
A: The pest or weed control at 100 ppm was 100%.

Q: What about the pest or weed control at 500 ppm (Sphaerotheca fuliginea) of the same molecule?
A: The pest or weed control at 500 ppm was 100%.

Q: What about the MIC [1] of the same molecule?
A: The MIC was 6.25 µg/mL (≈ 14.5 µM).

Q: What about the MIC [2] of the same molecule?
A: The MIC was 6.25 µg/mL (≈ 14.5 µM).

Q: And the MIC [3]?
A: Its MIC is 3.12 µg/mL (≈ 7.23 µM).

Q: And the MIC [4]?
A: Its MIC is 6.25 µg/mL (≈ 14.5 µM).

Q: And the MIC (Bacillus subtilis PC1219)?
A: Its MIC is less than 0.2 µg/mL.

Q: And the MIC [5]?
A: The MIC was 3.12 µg/mL (≈ 7.23 µM).

Q: And the MIC (Escherichia coli)?
A: Its MIC is 12.5 µg/mL (≈ 29 µM).

Q: What about the MIC [6] of the same molecule?
A: Its MIC is 12.5 µg/mL (≈ 29 µM).

Q: And the MIC [7]?
A: Its MIC is 12.5 µg/mL (≈ 29 µM).

Q: What about the MIC [8] of the same molecule?
A: The MIC was 12.5 µg/mL (≈ 29 µM).

Q: And the MIC [9]?
A: Its MIC is 6.25 µg/mL (≈ 14.5 µM).

Q: And the MIC [10]?
A: The MIC was 3.12 µg/mL (≈ 7.23 µM).

Q: And the MIC [11]?
A: Its MIC is 6.25 µg/mL (≈ 14.5 µM).

Q: What about the MIC [12] of the same molecule?
A: Its MIC is 6.25 µg/mL (≈ 14.5 µM).

Q: And the MIC (Penicillium italicum)?
A: Its MIC is 3.12 µg/mL (≈ 7.23 µM).

Q: And the MIC [13]?
A: The MIC was 6.25 µg/mL (≈ 14.5 µM).

Q: And the MIC (Pseudomonas aeruginosa)?
A: Its MIC is 12.5 µg/mL (≈ 29 µM).

Q: What about the MIC [14] of the same molecule?
A: Its MIC is 6.25 µg/mL (≈ 14.5 µM).

Q: What about the MIC [15] of the same molecule?
A: Its MIC is 6.25 µg/mL (≈ 14.5 µM).

Q: And the MIC [16]?
A: Its MIC is less than 0.2 µg/mL.

Q: And the MIC (Trametes sanguinea)?
A: Its MIC is 6.25 µg/mL (≈ 14.5 µM).

Q: What about the pest or weed control at 250 ppm (Botrytis cinerea) of the same molecule?
A: Its pest or weed control at 250 ppm is 100%.
